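Five concentrations, 48 hours, 96-well plates. GI50 marks 50% less growth.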 Calls of active or inactive are those of the source. Rule as the data show it: active = GI50 up to about 1.1 µM and inactive = higher.
Assays:
Experiment in all cases: NCI tumour cell line growth inhibition, 48 h
U-251 = system: U-251
SN12C = system: SN12C
BT-549 = system: BT-549
MDA-MB-231 = system: MDA-MB-231
PC-3 = system: PC-3
OVCAR-5 = system: OVCAR-5
UACC-62 = system: UACC-62
SF-268 = system: SF-268
SNB-75 = system: SNB-75
A498 = system: A498
TK-10 = system: TK-10
MDA-N = system: MDA-N
HOP-62 = system: HOP-62
OVCAR-8 = system: OVCAR-8
DU-145 = system: DU-145
CCRF-CEM = system: CCRF-CEM
HT-29 = system: HT-29
MOLT-4 = system: MOLT-4
LOX IMVI = system: LOX IMVI

| Compound | GI50 (U-251) | GI50 (SN12C) | GI50 (BT-549) | GI50 (MDA-MB-231) | GI50 (PC-3) | GI50 (OVCAR-5) | GI50 (UACC-62) | GI50 (SF-268) | GI50 (SNB-75) | GI50 (A498) | GI50 (TK-10) | GI50 (MDA-N) | GI50 (HOP-62) | GI50 (OVCAR-8) | GI50 (DU-145) | GI50 (CCRF-CEM) | GI50 (HT-29) | GI50 (MOLT-4) | GI50 (LOX IMVI) |
| --- | --- | --- | --- | --- | --- | --- | --- | --- | --- | --- | --- | --- | --- | --- | --- | --- | --- | --- | --- |
| CCCOc1ccc(/C=C/C2=[N+](CCO)CCO2)cc1 | > 100 µM (inactive) | > 100 µM (inactive) | > 100 µM (inactive) | > 100 µM (inactive) | > 100 µM (inactive) | > 100 µM (inactive) | > 100 µM (inactive) | > 100 µM (inactive) | > 100 µM (inactive) | > 100 µM (inactive) | > 100 µM (inactive) | > 100 µM (inactive) | > 100 µM (inactive) | > 100 µM (inactive) | > 100 µM (inactive) | > 100 µM (inactive) | > 100 µM (inactive) | > 100 µM (inactive) | – |
| Oc1c(OCc2nnc(CCCCCCCCc3nnc(COc4ccc5ccccc5c4O)o3)o2)ccc2ccccc12 | 41.7 µM (inactive) | 83.9 µM (inactive) | > 100 µM (inactive) | 91.8 µM (inactive) | > 100 µM (inactive) | > 100 µM (inactive) | > 100 µM (inactive) | 85.5 µM (inactive) | 62.7 µM (inactive) | > 100 µM (inactive) | > 100 µM (inactive) | > 100 µM (inactive) | – | – | > 100 µM (inactive) | – | > 100 µM (inactive) | 19.7 µM (inactive) | – |
| CC1(C)OC2COC3([C@@H]4OC(C)(C)O[C@@H]4CO)OC(C)(C)OC3C2O1 (some centres not stated) | > 100 µM (inactive) | > 100 µM (inactive) | > 100 µM (inactive) | > 100 µM (inactive) | > 100 µM (inactive) | > 100 µM (inactive) | > 100 µM (inactive) | – | > 100 µM (inactive) | > 100 µM (inactive) | – | > 100 µM (inactive) | > 100 µM (inactive) | > 100 µM (inactive) | > 100 µM (inactive) | > 100 µM (inactive) | – | – | > 100 µM (inactive) |
| C[n+]1c2ccccc2n2c3ccccc3c(NCCCn3ccnc3)c(C#N)c21 | 2.18 µM (inactive) | 1.26 µM (inactive) | 17.6 µM (inactive) | 2.65 µM (inactive) | 2.02 µM (inactive) | 4.1 µM (inactive) | 2.74 µM (inactive) | 1.44 µM (inactive) | 1.66 µM (inactive) | 13.4 µM (inactive) | 7.11 µM (inactive) | 2.7 µM (inactive) | 2.03 µM (inactive) | 1.55 µM (inactive) | 2.77 µM (inactive) | – | 3.31 µM (inactive) | 0.533 µM (active) | 1.49 µM (inactive) |
| Cc1ccc(S(=O)(=O)N/N=C2/CCCOC2)cc1 | > 100 µM (inactive) | > 100 µM (inactive) | > 100 µM (inactive) | > 100 µM (inactive) | > 100 µM (inactive) | > 100 µM (inactive) | > 100 µM (inactive) | > 100 µM (inactive) | – | > 100 µM (inactive) | > 100 µM (inactive) | > 100 µM (inactive) | > 100 µM (inactive) | > 100 µM (inactive) | > 100 µM (inactive) | > 100 µM (inactive) | > 100 µM (inactive) | > 100 µM (inactive) | > 100 µM (inactive) |
| O=C1COc2cc(N3CCN(c4cccc(C(F)(F)F)c4)CC3)ccc2N1 | > 100 µM (inactive) | > 100 µM (inactive) | > 100 µM (inactive) | > 100 µM (inactive) | > 100 µM (inactive) | > 100 µM (inactive) | > 100 µM (inactive) | > 100 µM (inactive) | > 100 µM (inactive) | – | > 100 µM (inactive) | > 100 µM (inactive) | > 100 µM (inactive) | > 100 µM (inactive) | > 100 µM (inactive) | > 100 µM (inactive) | > 100 µM (inactive) | > 100 µM (inactive) | > 100 µM (inactive) |
| CN1C(=O)CN(NC(=O)C2=C(O)c3ccc(Br)cc3S(=O)(=O)N2)C1=S | > 100 µM (inactive) | > 100 µM (inactive) | > 100 µM (inactive) | > 100 µM (inactive) | > 100 µM (inactive) | > 100 µM (inactive) | > 100 µM (inactive) | > 100 µM (inactive) | – | > 100 µM (inactive) | > 100 µM (inactive) | 45.3 µM (inactive) | > 100 µM (inactive) | > 100 µM (inactive) | > 100 µM (inactive) | 19.2 µM (inactive) | > 100 µM (inactive) | > 100 µM (inactive) | > 100 µM (inactive) |
| Cc1cn(C(C)OCCN2C(=O)c3ccccc3C2=O)c(=O)[nH]c1=O (configuration not stated) | > 100 µM (inactive) | > 100 µM (inactive) | > 100 µM (inactive) | > 100 µM (inactive) | > 100 µM (inactive) | > 100 µM (inactive) | > 100 µM (inactive) | – | > 100 µM (inactive) | > 100 µM (inactive) | – | > 100 µM (inactive) | > 100 µM (inactive) | > 100 µM (inactive) | > 100 µM (inactive) | > 100 µM (inactive) | > 100 µM (inactive) | > 100 µM (inactive) | > 100 µM (inactive) |

Source: ChEMBL document CHEMBL1201862, “PubChem BioAssay data set” (2004)
